“Also recorded” adds a separate entry of the source. Where a name gives a salt, the structure may show the parent alone.
How the values were obtained:
[1] = tested on: vocal cords and respiratory muscles of rats; settings: rat, in vivo
[2] = target: T1, recombinant human alpha 1D adrenergic receptor (ADR1D) (Homo sapiens, UniProt P25100)
T1 sequence (P25100 1-572): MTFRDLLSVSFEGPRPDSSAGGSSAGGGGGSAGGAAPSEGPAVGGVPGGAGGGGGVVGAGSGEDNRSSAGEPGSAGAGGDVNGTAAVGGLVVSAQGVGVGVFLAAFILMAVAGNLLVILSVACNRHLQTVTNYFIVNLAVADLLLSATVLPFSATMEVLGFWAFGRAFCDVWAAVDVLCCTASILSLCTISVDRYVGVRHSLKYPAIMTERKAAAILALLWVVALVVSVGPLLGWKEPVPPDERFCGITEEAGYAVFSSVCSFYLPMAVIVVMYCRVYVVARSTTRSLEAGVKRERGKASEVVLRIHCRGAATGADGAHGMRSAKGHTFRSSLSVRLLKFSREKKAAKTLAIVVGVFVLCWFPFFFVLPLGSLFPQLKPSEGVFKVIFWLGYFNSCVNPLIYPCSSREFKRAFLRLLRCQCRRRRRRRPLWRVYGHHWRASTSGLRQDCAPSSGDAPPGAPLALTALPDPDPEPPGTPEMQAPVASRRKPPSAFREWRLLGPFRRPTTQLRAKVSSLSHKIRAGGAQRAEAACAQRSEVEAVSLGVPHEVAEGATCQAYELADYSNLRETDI

[3] = tested on: neuromuscular blockade; settings: human, in vivo; cited from earlier work
[4] = target: recombinant human alpha 1A adrenergic receptor (ADR1A) (Homo sapiens, UniProt P35348); assay type: binding
[5] = tested on: alpha 1 subtypes (1A, 1B, 1D); assay type: cell-based, human
[6] = tested on: T2, alpha 1 adrenergic receptor subtypes (1A, 1B, 1D); assay type: binding, human
T2 construct: rows headed: BA at all subtypes; other: subnanomolar range; Ki at alpha 1 adrenergic receptor subtypes; other: result in words

[7] = target: T3, recombinant human alpha 1B adrenergic receptor (ADR1B) (Homo sapiens, UniProt P35368)
T3 sequence (P35368 whole entry): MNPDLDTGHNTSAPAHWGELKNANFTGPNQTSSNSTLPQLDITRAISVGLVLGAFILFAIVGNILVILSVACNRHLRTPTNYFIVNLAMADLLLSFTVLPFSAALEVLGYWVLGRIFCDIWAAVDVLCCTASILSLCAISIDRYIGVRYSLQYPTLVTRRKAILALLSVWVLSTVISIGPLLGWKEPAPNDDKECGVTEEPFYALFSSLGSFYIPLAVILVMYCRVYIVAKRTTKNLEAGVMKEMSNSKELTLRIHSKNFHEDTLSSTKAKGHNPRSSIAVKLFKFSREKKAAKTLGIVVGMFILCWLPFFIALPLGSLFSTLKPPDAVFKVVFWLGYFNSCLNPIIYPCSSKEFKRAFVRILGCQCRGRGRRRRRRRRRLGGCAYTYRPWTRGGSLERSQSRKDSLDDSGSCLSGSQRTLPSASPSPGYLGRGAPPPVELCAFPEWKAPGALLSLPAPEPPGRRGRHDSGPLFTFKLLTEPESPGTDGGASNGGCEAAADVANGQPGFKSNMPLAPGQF

[8] = tested on: rat; settings: in vivo; cited from earlier work
[9] = tested on: VC and laryngeal muscles/laryngospasm; settings: rat, in vivo; cited from earlier work
[10] = target: T3, recombinant human alpha 1B adrenergic receptor (ADR1B); test: biochemical
[11] = target: T4, α-1 adrenergic receptor 1A subtype (Homo sapiens, UniProt P35348); settings: cited from earlier work
T4 sequence (P35348 1-466): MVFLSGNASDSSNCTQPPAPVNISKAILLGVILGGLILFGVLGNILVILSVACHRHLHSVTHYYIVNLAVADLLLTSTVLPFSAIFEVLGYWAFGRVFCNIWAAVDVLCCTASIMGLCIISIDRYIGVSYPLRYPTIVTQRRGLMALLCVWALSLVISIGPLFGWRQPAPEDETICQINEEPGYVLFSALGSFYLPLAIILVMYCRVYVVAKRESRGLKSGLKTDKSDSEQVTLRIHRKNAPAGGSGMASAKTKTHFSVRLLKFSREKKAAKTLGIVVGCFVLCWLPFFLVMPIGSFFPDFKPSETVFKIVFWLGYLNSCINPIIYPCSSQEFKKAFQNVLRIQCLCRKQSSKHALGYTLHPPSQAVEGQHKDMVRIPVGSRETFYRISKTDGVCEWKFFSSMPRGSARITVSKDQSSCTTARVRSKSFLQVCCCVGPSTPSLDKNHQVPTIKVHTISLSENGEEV

[12] = target: T1, recombinant human alpha 1D adrenergic receptor (ADR1D); test: biochemical
[13] = target: vesicular monoamine transporter-VMAT (Homo sapiens, UniProt Q05940); test: cell-based
Chain of vesicular monoamine transporter-VMAT (Q05940 whole entry): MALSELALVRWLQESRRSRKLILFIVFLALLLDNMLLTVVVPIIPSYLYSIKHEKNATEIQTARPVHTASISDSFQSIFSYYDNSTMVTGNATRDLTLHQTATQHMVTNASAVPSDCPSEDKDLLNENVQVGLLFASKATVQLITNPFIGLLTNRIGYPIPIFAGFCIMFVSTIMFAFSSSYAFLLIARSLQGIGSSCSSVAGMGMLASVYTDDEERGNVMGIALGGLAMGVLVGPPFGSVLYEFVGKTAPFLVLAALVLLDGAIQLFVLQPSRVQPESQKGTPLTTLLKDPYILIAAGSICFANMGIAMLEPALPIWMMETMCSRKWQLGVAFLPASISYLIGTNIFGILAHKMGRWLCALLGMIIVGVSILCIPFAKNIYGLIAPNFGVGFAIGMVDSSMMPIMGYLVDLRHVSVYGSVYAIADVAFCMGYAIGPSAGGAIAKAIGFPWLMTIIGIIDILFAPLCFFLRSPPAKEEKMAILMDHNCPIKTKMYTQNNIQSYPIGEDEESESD

[14] = target: T5, recombinant human VMAT2 transporters (Homo sapiens, UniProt Q05940); assay type: binding
T5 construct: expressed in transfected cells; host or cells: HEK-293
T5 sequence (Q05940 whole entry): as above

[15] = human, in vivo; cited from earlier work

CC(=O)Oc1ccc2c3c1O[C@H]1[C@@H](OC(C)=O)C=C[C@H]4[C@@H](C2)N(C)CC[C@@]341 [heroin]
vocal cord closure and chest wall rigidity effect (specific to F/FA) [1]: not demonstrated

NC[C@H](O)c1ccc(O)c(O)c1 [norepinephrine]
binding at the 1D subtype over 1A and 1B receptor subtypes, respectively [2]: 9-20 fold

C[N+](C)(C)CCOC(=O)CCC(=O)OCC[N+](C)(C)C [succinylcholine]
onset of effect given intramuscularly [3]: 2 to 3 min
persistence of maximum blockade [3]: about 2 minutes
recovery time after maximum blockade [3]: 4 to 6 min
time until neuromuscular blockade develops [3]: about 1 minute

CN1CC[C@]23c4c5ccc(O)c4O[C@H]2[C@@H](O)C=C[C@H]3[C@H]1C5 [morphine]
binding at alpha 1A (bind all alpha 1 subtypes) [4]: not morphine or naloxone bind
binding at alpha 1D (bind all alpha 1 subtypes) [2]: not morphine or naloxone bind
act as antagonists at all alpha 1 subtypes [5]: not morphine
binding at alpha 1 adrenergic receptor subtypes [6]: not morphine; also recorded: neither morphine (MSO4) or naloxone had any notable or relevant binding activity
binding at alpha 1B (bind all alpha 1 subtypes) [7]: not morphine or naloxone bind

COC(=O)[C@H]1[C@@H](OC(=O)c2ccccc2)C[C@@H]2CC[C@H]1N2C [cocaine]
LD85 [8]: 70 mg/kg
vocal cord closure and chest wall rigidity effect (specific to F/FA) [1]: not demonstrated

C=CCN1CC[C@]23c4c5ccc(O)c4O[C@H]2C(=O)CC[C@@]3(O)[C@H]1C5.Cl [naloxone, 17-Allyl-4,5α-epoxy-3,14-dihydroxymorphinan-6-one hydrochloride]
impact on the effects of F on VC and laryngeal muscles/laryngospasm [9]: minimal impact
binding at alpha 1 adrenergic receptor subtypes [6]: neither morphine (MSO4) or naloxone had any notable or relevant binding activity

CCOc1ccccc1OCCN[C@H](C)Cc1ccc(OC)c(S(N)(=O)=O)c1 [tamsulosin, (−)-(R)-5-[2-[[2-(o-Ethoxyphenoxy)ethyl]amino]propyl]-2-methoxybenzenesulfon-amide, monohydrochloride]
Ki [10]: < 1 nM
binding affinity at the 1A subtype greater over other α-1 antagonists [11]: 12-30 times
Ki [12]: < 1 nM

CN[C@@H](C)Cc1ccccc1 [methamphetamine]
IC50 [13]: ~4 µM
binding to VMAT2 transporter [14]: bind to recombinant human VMAT2 transporters
LD90 [8]: 100 mg/kg
vocal cord closure and chest wall rigidity effect (specific to F/FA) [1]: not demonstrated

C=CC[N+]1([C@H]2C[C@H]3[C@@H]4CC[C@H]5C[C@H](O)[C@@H](N6CCOCC6)C[C@]5(C)[C@H]4CC[C@]3(C)[C@H]2OC(C)=O)CCCC1 [rocuronium bromide, 1-[17β-(acetyloxy)-3α-hydroxy-2β-(4-morpholinyl)-5α-androstan-16β-yl]-1-(2-propenyl)pyrrolidinium bromide]
time to completed intubation in most patients [3]: ≤ 2 min
time to excellent or good intubating conditions in most patients [3]: less than 2 minutes
time to maximum blockade in most patients [3]: less than 3 minutes
time to neuromuscular block sufficient for intubation (80% block or greater), median (range) [3]: 1 (0.4-6) minute(s)

C[C@H](Cc1cc2c(c(C(N)=O)c1)N(CCCO)CC2)NCCOc1ccccc1OCC(F)(F)F [SILODOSIN, (3-Hydroxypropyl)-5-[(2R)-2-({2-[2-(2,2,2trifluoroethoxy)phenoxy]ethyl}amino)propyl]-2,3-d hydro-1H-indole-7-carboxamide]
dizziness and orthostatic hypotension [15]: 3%
subjects with syncope [15]: 1/897
